In assay [1] the target is T1, native GSMT (glycine sarcosine N-methyltransferase) (Methanohalophilus portucalensis, UniProt F6KV61).
T1 construct: monomer and dimer fractions pooled
T1 sequence (F6KV61 1-263): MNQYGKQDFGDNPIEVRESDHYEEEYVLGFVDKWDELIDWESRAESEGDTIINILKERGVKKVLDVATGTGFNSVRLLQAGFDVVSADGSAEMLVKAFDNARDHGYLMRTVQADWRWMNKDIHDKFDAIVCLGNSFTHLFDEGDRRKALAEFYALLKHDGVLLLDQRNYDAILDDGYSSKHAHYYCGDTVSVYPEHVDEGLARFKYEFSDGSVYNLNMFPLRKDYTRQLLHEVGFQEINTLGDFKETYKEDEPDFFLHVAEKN
Kind of assay: radiometric [methyl-3H]-SAM methyl transfer, charcoal separation. It counts as biochemical. The settings on record: read-out: I50.

The target in assay [2] is T1, native GSMT (glycine sarcosine N-methyltransferase). The description is as above. It counts as biochemical.

Molecules are shown by their SMILES.

For the compound `Nc1ncnc2c1ncn2[C@@H]1O[C@H](CSCC[C@H](N)C(=O)O)[C@@H](O)[C@H]1O` [SAH, S-adenosylhomocysteine], the IC50 in assay [1] worked out at 50 µM.
One may read the remaining activity as the signal under treatment as a percentage of the control signal. `C[N+](C)(C)CC(=O)[O-]` [betaine] had a remaining activity at 1 M in assay [2] of 43%.

Values taken from publication PMC5201303, “Comparison of Enzymatic Traits between Native and Recombinant Glycine Sarcosine N-Methyltransferase from Methanohalophilus portucalensis FDF1^T” (PLoS ONE, 2016).
